Test results as given in patent publication US9340543B2, “Helquat derivatives, preparation thereof, and use thereof as medicaments” (USTAV ORGANICKE CHEMIE A BIOCHEMIE AKADEMIE VED CR, V.V.I., priority 2013, dated 2016).
pIC50: −log10 of the molar value. Read-outs that look alike come from different tables or passages of the source.

Key:
CCRF-CEM = test: CellTiter-Glo luminescent cell viability assay (ATP quantification), CCRF-CEM; type: cell-based; details: acute lymphoblastic leukemia cells, 72 h treatment, viable cells by ATP luminescence
Protocol: (§1) Influence of the test compounds on viability (proliferation) of cell lines used was investigated in concentration range 0-100 μmol·l^−1.
Suspension cell line CCRF-CEM is a permanent in vitro culture of acute lymphoblastic leukemia. CCRF-CEM cell line was cultivated in RPMI 1640 medium (Sigma-Aldrich, cat. no. R8758) with addition of 2 mmol·l^−1 glutamine (Invitrogen, cat. no. 35050-038), 10% fetal bovine serum (FBS, Sigma-Aldrich, cat. no. F9665), 100 IU/ml peniciline, 100 μg/ml streptomycine (Sigma-Aldrich, cat. no. P0781). Passaging was performed 2-3× a week. Population doubling time of CCRF-CEM cell line was 20 h under the cultivation conditions used.
(§2) In order to test the sensitivity of the cell lines towards the studied helquats, cytotoxity test for cell viability assessment based on ATP quantification in cell lysates was used (CellTiter-Glo® Luminescent Cell Viability Assay, Promega, cat. no. G7571). In this test, ATP in cell lysates is detected using luciferase reaction. Luminescence intensity correlates with the ATP level and thus with quantity of metabolically active (viable) cells. IC50 value serves as the output, that is the concentration of the test compound which leads to 50% reduction in number of viable cells as compared to control, untreated population. To this end, IC50 value reflects efficiency of the test compound with regard to the given cell line.
(§3) Cells in the exponential growth phase were seeded into a 96-well microtiter plate were plated at 3000 cells per well. Each well contained 90 μl of cell suspension. The next day, 10 μl of 10× concentrated test compound solutions were added. The effect of helquats was investigated in concentration range 1 to 100 μmol·l^−1 (e.g. 1; 2.5; 5; 7.5; 10; 15; 25; 50 and 100 μmol·l^−1). Apart from the section containing the concentration series of the test compound, each well contained 2 control columns, the first with pure medium (so called blank) and the second with cells in medium without the test compounds (control). Into wells containing controls and blanks, volume of solvent (water) equal to the volume of added compound solutions was added. After 72 h of incubation with the test compounds viability was determined according to the manufacturer's instructions. In short: microtiter well plate was left 30 min to reach the room temperature after it has been removed from the incubator. Then, into each well, 100 μl of the prepared detection agent was added. Next, the well plate was shaken for 2 min to complete the full lysis. Next, after the well had been left in the dark for 15 min, the luminescence was measured in each well using luminometer (Tecan Genios, Austria).
(§4) IC50 value represents concentration of the test compound, which leads to 50% reduction of viable cells (inhibition of cell growth) after 72 h of the treatment. Each helquat concentration was tested in triplicates in a IC50 quantification and at least 3 independent IC50 quantification experiments were performed. IC50 values over 100 μmol·l^−1 were obtained by extrapolation of data measured in concentration range 0-100 μmol·l^−1 for the given helquat.

HUVEC = test: CellTiter-Glo luminescent cell viability assay (ATP quantification), HUVEC normal cells; type: cell-based, human; details: 72 h treatment
Protocol: as §1
Normal human endothelial cells from umbilical vein are adherent cells cultivated in plastic Petri dishes coated with collagen I. Into the cultivation medium (E-STIM™; BD Biosciences, cat. co. 355054) already containing 2% FBS (fetal bovine serum), hydrocortisone and heparin the following two further ingredients were added: epidermal growth factor (EGF, 5 μg) and mixture of factors facilitating growth of endothelial cells (ECGS, 100 mg). […] The cells were passaged after reaching 90% confluency by dissociation using 0.25% solution of trypsin/EDTA (1 ml; 3 min; 37° C.). After that 5 ml of complete cultivation medium E-STIM™ was added and the cells were centrifuged (180×g, 7 min), the pellet was resuspended, and transferred in the amount needed into a new Petri dish with fresh medium. The cells were used in experiments between the 3rd and the 8th passage after defreezing. Population doubling time of HUVEC cell line was 38 h under the cultivation conditions used.
as §2, §3, §4

Hep G2 = test: CellTiter-Glo luminescent cell viability assay (ATP quantification), Hep G2; type: cell-based; details: hepatocellular carcinoma cells, 72 h treatment, viable cells by ATP luminescence
Protocol: as §1
Adherent cell line Hep G2 is a permanent in vitro culture derived from liver tissue of a patient with hepatocellular carcinoma. Hep G2 cell line was cultivated in DMEM medium (Sigma-Aldrich, cat. no. M4528) with addition of 2 mmol·l^−1 glutamine (Invitrogen, see above), 10% fetal bovine serum (FBS, Sigma-Aldrich, see above), 100 IU/ml peniciline, 100 μg/ml streptomycine (Sigma-Aldrich, see above). Passaging was performed twice a week. After washing of cells with sterile PBS, the cells were released by 0.25% trypsin/EDTA (Sigma-Aldrich, see above) at 37° C. for 2 minutes. The trypsin was inactivated by addition of 2 volumes of complete medium, cells were then centrifuged (250×g, 5 min), resuspended, and transferred in the amount needed into a new cultivation bottle with fresh medium. Population doubling time of Hep G2 cell line was 28 h under the cultivation conditions used.
as §2
as §3, with “In short: microtiter well plate was left 30 min to reach the room temperature after it has been removed from the incubator. Then, into each well, 100 μl of the prepared detection agent was added. Next, the well plate was shaken for 2 min to complete the full lysis.” left out, “Austria). […]” for “Austria).”

Row | pIC50 (CCRF-CEM; Homo sapiens, CCRF-CEM) | pIC50 (CCRF-CEM) | SMILES | pIC50 (HUVEC; HUVEC, normal human endothelial cells, numeric bound, values over 100 obtained by extrapolation of data measured at 0-100 μmol·l−1) | pIC50 (Hep G2; Homo sapiens, HepG2) | pIC50 (HUVEC; normal human endothelial cells from umbilical vein, viable cells by ATP luminescence, class symbols) | pIC50 (Hep G2; read-out: IC50 HepG2) | pIC50 (HUVEC; normal human endothelial cells, numeric bound, values over 100 obtained by extrapolation of data measured at 0-100 μmol·l−1)
1 | 4.30 to 4.96 |  | COc1ccc(/C=C/c2cc[n+]3c(c2)-c2c(c(C)c(C)c4c2-c2c5ccccc5cc[n+]2CC4)CC3)cc1 [(M)-6, (M)-(E)-13-(4-methoxystyryl)-6,7-dimethyl-4,5,8,9-tetrahydroisoquinolino[1,2-a]pyrido[1,2-k][2,9]phenanthroline-3,10-diium trifluoromethanesulfonate] | < 3.82 | 4.30 to 4.96 |  |  | 
2 |  | > 5.00 | COc1ccc2cc(/C=C/c3cc[n+]4c(c3)-c3c(c(C)c(C)c5c3-c3c6ccccc6cc[n+]3CC5)CC4)ccc2c1 [(M)-7, (M)-(E)-13-(2-(6-methoxynaphthalene-2-yl)vinyl)-6,7-dimethyl-4,5,8,9-tetrahydroisoquinolino[1,2-a]pyrido[1,2-k][2,9]phenanthroline-3,10-diium trifluoromethanesulfonate] |  |  | 3.82 to 4.29 | 4.30 to 4.96 | 
3 |  | > 5.00 | Cc1c(C)c2c(c3c1CC[n+]1ccc(/C=C/c4ccc(N(C)C)cc4)cc1-3)-c1c3ccccc3cc[n+]1CC2 [(M)-1, (M)-(E)-13-(4-(dimethylamino)styryl)-6,7-dimethyl-4,5,8,9-tetrahydroiso-quinolino[1,2-a]pyrido[1,2-k][2,9]phenanthroline-3,10-diium trifluoromethanesulfonate] |  |  |  | 4.30 to 4.96 | < 3.82
